Data reported in ChEMBL document CHEMBL5252544, “Synthesis and evaluation of biological activities of vibsanin A analogs” (Bioorg Med Chem Lett, 2017).
Active and inactive are the calls of the source. No cut-off for these calls is given here.

Experiments:
[1] = target: T1, Protein kinase C (PKC) (Homo sapiens) (UniProt O94806+P41743+P17252+P05129+Q05655+P05771+Q05513+Q02156+P24723+Q15139+Q04759); test: Activation of PKC in human THP-1 cells assessed as increase in ERK phosphorylation at 100 nM incubated for 15 mins by immunoblotting analysis; assay type: cell-based; details: filed as activator
[2] = system: THP-1; test: Cytotoxicity against human THP-1 cells by trypan blue staining based microscopic analysis; assay type: functional, cell-based
[3] = target: T1, Protein kinase C (PKC) (Homo sapiens); test: Activation of PKC in human THP-1 cells assessed as increase in ERK phosphorylation at 0.1 to 10 uM incubated for 15 mins by immunoblotting analysis; assay type: cell-based; details: dose 0.1-10 µM
[4] = system: THP-1; test: Induction of cell differentiation in human THP-1 cells; assay type: functional, cell-based
[5] = system: THP-1; test: Induction of monocytic differentiation in human THP-1 cells assessed as decrease in nuclear to cytoplasmic ratio at 10 uM measured after 72 hrs by giemsa staining based microscopic analysis; assay type: functional, cell-based
[6] = system: THP-1; test: Induction of monocytic differentiation in human THP-1 cells assessed as increase in cell size at 10 uM measured after 72 hrs by giemsa staining based microscopic analysis; assay type: functional
[7] = target: T1, Protein kinase C (PKC) (Homo sapiens); test: Activation of PKC in human THP-1 cells assessed as increase in ERK phosphorylation incubated for 15 mins by immunoblotting analysis; assay type: cell-based; details: filed as activator, dose 0.1-10 µM
[8] = system: THP-1; test: Induction of morphological changes in human THP-1 cells assessed as loss of cell circularity at 10 uM measured after 72 hrs by microscopic analysis; assay type: functional, cell-based
[9] = target: T1, Protein kinase C (PKC) (Homo sapiens); test: Activation of PKC in human THP-1 cells assessed as increase in ERK phosphorylation at 10 uM pretreated with PMA for 24 hrs followed by compound addition and measured after 15 mins by immunoblotting analysis; assay type: cell-based
[10] = system: HL-60; test: Activation of ERK in human HL-60 cells assessed as increase in cell differentiation; assay type: cell-based; details: filed as activator
[11] = system: THP-1; test: Induction of monocytic differentiation in human THP-1 cells assessed as high vacuolated cytoplasm at 10 uM measured after 72 hrs by giemsa staining based microscopic analysis; assay type: functional, cell-based

Compound | Activity [3] | Activity [5] | Activity [6] | Activity [7] | Activity [10] | Activity [11] | also measured
CCCCCCCCCCCCCC(=O)O[C@@H]1[C@@H](C)[C@@]2(O)[C@@H](C=C(CO)C[C@]3(O)C(=O)C(C)=C[C@@H]23)[C@@H]2C(C)(C)[C@]12OC(C)=O |  |  |  |  |  |  | Activity [1]: Active
C=C1CC[C@H]2O[C@@]2(C)[C@H](OC(=O)C=C(C)C)/C=C/[C@@](C)(CCC=C(C)C)CC1=O | inactive |  |  |  |  |  | Activity [2]: Active; Activity [4]: inactive
CC(C)=CCC[C@]1(C)/C=C/[C@@H](OC(=O)C=C(C)C)[C@]2(C)O[C@@H]2CC/C(C=O)=C\C1 |  | Active | Active | Dose-Dependent Effect | Active | Active | Activity [8]: Active; Activity [9]: inactive
CC(C)=CCC[C@]1(C)/C=C/[C@@H](OC(=O)C=C(C)C)[C@]2(C)O[C@@H]2CC/C(CO)=C\C1 |  | Active | Active | Dose-Dependent Effect | Active | Active | 
C=C(I)CC[C@H]1O[C@@]1(C)[C@@H](/C=C/[C@](C)(CC=O)CCC=C(C)C)OC(=O)C=C(C)C | inactive |  |  |  |  |  | 
C=C1CC[C@H]2O[C@@]2(C)[C@H](OC(=O)C=C(C)C)/C=C/[C@@](C)(CCC=C(C)C)C[C@H]1O | inactive |  |  |  |  |  | 
